In PMC10786919, “Design-rules for stapled peptides with in vivo activity and their application to Mdm2/X antagonists” (Nature Communications, 2024):
Values after ≈ are worked out from the molar mass of the structure shown. Read-outs that look alike come from different tables or passages of the source. Positions of bridges follow the written chain, without caps; N, C: chain ends. Non-standard residues stand in square brackets, D forms with d. Residues, ends and D or L forms follow the SMILES beside them. Lys(N3) = [N-]=[N+]=NCCCC[C@H](N)C(=O)O; R8 = C=CCCCCCC[C@@](C)(N)C(=O)O; Cba = N[C@@H](CC1CCC1)C(=O)O; S5 = C=CCCC[C@](C)(N)C(=O)O; βAla = NCCC(=O)O

How the values were obtained:
[1] = Lactate dehydrogenase (LDH) release assay; type: cell-based; settings: LDH: Cytotoxicity assay: EC50
Method in brief: (§1)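 HCT116 cells stably carrying a p53-responsive β-lactamase reporter were seeded at 8000 cells per well with a final DMSO level of 0.5%. Membrane integrity was assessed by lactate dehydrogenase release using a homogeneous fluorometric kit. Values are geometric means of at least three biological replicates.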

[2] = Solubility assay (kinetic solubility, PBS pH 7); type: physicochemical; settings: pH 7, PBS; for solubility kinetic: pH 7, aqueous buffer, kinetic from dmso stock, read-out: Solubility
Method in brief: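 Next, measure peak areas of sample and standard. Finally, multiply their ratio by the standard concentration to obtain solubility (µM).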

in vitro = settings: Nanoclick permeability assay EC50
Method in brief: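 Azido-peptide permeability was read as loss of NanoBRET signal (donor 450 nm, acceptor 610 nm) after adding NanoBret618-azide at 10 μM final.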

EPSA = type: physicochemical
[3] = Experimental LogD (partition coefficient); settings: for logD: not stated, Partition Coeff LogD
HCT116 cells = assay: Lactate dehydrogenase (LDH) release assay; type: cell-based
Method in brief: as §1

Row | SMILES | EC50 [1] [µM] | solubility kinetic [2] [µM] | cell entry EC50 (in vitro) [µM] | EPSA (EPSA; EPSA) [A^2] | logD [3] | LDH: Cytotoxicity assay: % Effect (HCT116 cells) [%] | Solubility [2] | EPSA (EPSA) | Partition Coeff LogD [3]
1 | CC(=O)N[C@@H](CCCCN=[N+]=[N-])C(=O)NCCC(=O)N[C@@H](CC(C)C)C(=O)N[C@H](C(=O)N[C@@H](CCC(=O)O)C(=O)N[C@]1(C)CCCCCCC=CCCC[C@@](C)(C(=O)N[C@@H](CO)C(=O)N[C@@H](C)C(=O)N[C@@H](C)C(N)=O)NC(=O)[C@H](CC2CCC2)NC(=O)[C@H](CCC(N)=O)NC(=O)[C@H](C)NC(=O)[C@H](Cc2c[nH]c3ccccc23)NC(=O)[C@H](Cc2ccc(O)cc2)NC(=O)[C@H](Cc2ccccc2)NC1=O)[C@@H](C)O [MP-123] (Ac-[Lys(N3)][βAla]LTE[R8]FYWAQ[Cba][S5]SAA-NH2; staple 6-13) | > 50.7 | 2 (≈ 3.94 µg/mL) | 0.682 | 197 | 2.66 |  |  |  | 
2 | CC(=O)N[C@@H](CCCCN=[N+]=[N-])C(=O)NCCC(=O)N[C@@H](CC(C)C)C(=O)N[C@H](C(=O)N[C@@H](Cc1ccccc1)C(=O)N[C@@]1(C)CCCCCCC=CCCC[C@@](C)(C(=O)N[C@@H](CO)C(=O)N[C@@H](C)C(=O)N[C@@H](C)C(N)=O)NC(=O)[C@H](CC2CCC2)NC(=O)[C@H](CCC(N)=O)N(C)C(=O)[C@H](C)NC(=O)[C@H](Cc2c[nH]c3ccccc23)NC(=O)[C@H](Cc2ccc(O)cc2)NC(=O)[C@H](CCC(=O)O)NC1=O)[C@@H](C)O [MP-297] | > 50.7 | 108 (≈ 213 µg/mL) | 1.53 | 183 | 2.5 |  |  |  | 
3 | CC(=O)N[C@@H](CCCCN=[N+]=[N-])C(=O)NCCC(=O)N[C@H](C(=O)N[C@@H](CO)C(=O)N[C@@H](Cc1ccccc1)C(=O)N[C@]1(C)CCCCCCC=CCCC[C@@](C)(C(=O)N[C@@H](CO)C(=O)N[C@@H](C)C(=O)N[C@@H](C)C(N)=O)NC(=O)[C@H](CC(C)C)NC(=O)[C@H](CC(C)C)NC(=O)[C@H](C)NC(=O)[C@H](Cc2c[nH]c3ccccc23)NC(=O)[C@H](Cc2ccc(O)cc2)NC(=O)[C@H](CCC(=O)O)NC1=O)[C@@H](C)O [MP-686] | > 50.7 | 2 (≈ 3.83 µg/mL) | 0.0386 | 193 | 2.7 |  |  |  | 
4 | CC(=O)N[C@@H](CCCCN=[N+]=[N-])C(=O)NCCC(=O)N[C@@H](CC(C)C)C(=O)N[C@H](C(=O)N[C@@H](Cc1ccccc1)C(=O)N[C@]1(C)CCCCC#CC#CCCC[C@@](C)(C(=O)N[C@@H](CO)C(=O)N[C@@H](C)C(=O)N[C@@H](C)C(N)=O)NC(=O)[C@H](CC2CCC2)NC(=O)[C@H](CCC(N)=O)NC(=O)[C@H](C)NC(=O)[C@H](Cc2c[nH]c3ccccc23)NC(=O)[C@H](Cc2ccc(O)cc2)NC(=O)[C@H](CCC(=O)O)NC1=O)[C@@H](C)O [MP-806] | > 50.7 | 34 (≈ 66.8 µg/mL) | 5.58 | 203 | 2.44 |  |  |  | 
5 | CC(=O)N[C@@H](CS)C(=O)N[C@@H](CCCCN=[N+]=[N-])C(=O)NCCC(=O)N[C@@H](C)C(=O)N[C@H](C(=O)N[C@@H](Cc1ccccc1)C(=O)N[C@]1(C)CCCCCCC=CCCC[C@@](C)(C(=O)N[C@@H](C)C(=O)N[C@@H](C)C(=O)N[C@@H](C)C(N)=O)NC(=O)[C@H](CC2CCC2)NC(=O)[C@H](C)NC(=O)[C@H](C)NC(=O)[C@H](Cc2c[nH]c3ccccc23)NC(=O)[C@H](Cc2ccc(O)cc2)NC(=O)[C@H](C)NC1=O)[C@@H](C)O [MP-987] (Ac-C[Lys(N3)][βAla]ATF[R8]AYWAA[Cba][S5]AAA-NH2; staple 7-14) | > 50 | 12 (≈ 22.8 µg/mL) | 0.217 | 180 | 1.12 |  |  |  | 
6 | CC(C)C[C@H](NC(=O)[C@@H](N)CCCCN=[N+]=[N-])C(=O)N[C@H](C(=O)N[C@@H](Cc1ccccc1)C(=O)N[C@]1(C)CCCCCCC=CCCC[C@@](C)(C(=O)N[C@@H](CCC(=O)O)C(N)=O)NC(=O)[C@H](CC2CCC2)NC(=O)[C@H](CCC(N)=O)NC(=O)[C@H](C)NC(=O)[C@H](Cc2c[nH]c3ccccc23)NC(=O)[C@H](Cc2ccc(O)cc2)NC(=O)[C@H](CCC(=O)O)NC1=O)[C@@H](C)O [MP-4009] (H-[Lys(N3)]LTF[R8]EYWAQ[Cba][S5]E-NH2; staple 5-12) | > 50 |  |  |  |  | -2.907 | Poorly Behaved | Poorly Behaved | Poorly Behaved
